The nature of the assay: Inhibition of HIV1 3B protease infected in human MT4 cells assessed as protection from virus induced cytopathogenicity measured after 5 days post infection by MTT assay. On the technique in general: Protection from cytopathic effect is a common read-out in antiviral testing.

The values that follow come from BindingDB's records for doi:10.1016/j.bmcl.2018.06.027 (Chinese Academy of Science, 2018).

The EC50 is the concentration that produces a half-maximal response.

With `CC(C)[C@H](NC(=O)N(C)Cc1c[se]c(-c2ccccc2)n1)C(=O)N[C@@H](Cc1ccccc1)C[C@H](O)[C@H](Cc1ccccc1)NC(=O)OCc1cncs1`, the EC50 was determined as 170 nM.
The result for `CC(C)c1nc(CN(C)C(=O)N[C@H](C(=O)N[C@@H](Cc2ccccc2)C[C@H](O)[C@H](Cc2ccccc2)NC(=O)OCc2cncs2)C(C)C)c[se]1` reads 550 nM.
